Measured values published in patent US8263664B2, “pH-sensitive polymeric micelles for drug delivery” (priority 2002, dated 2012).

Assays:
[1] = test system: human breast MCF-7/DOX^R carcinoma xenografts; assay: Growth inhibition of human breast carcinoma (MCF-7/DOX^R) xenografts; type: in vivo; conditions: 10 mg/kg DOX equivalent i.v. days 0, 3 and 6
Method: Tumor volume was calculated using a formula, tumor volume=0.52×length×width×height. Dimensions were measured with an electronic digital caliper. Two to three weeks after inoculation (tumor volume 150-200 mm^3) in vivo antitumor studies were performed. Saline (control), free DOX, or DOX-loaded micelles in aqueous saline solution were injected intravenously through a tail vein by 1-3 bolus injections at three day intervals. The injection volume (approximately 0.1 mL/10 g body weight) of micelle preparation was adjusted to give 10 mg DOX/kg body weight. Five to eight mice per study were used. Tumor volume and body weight were monitored with elapsed time. A mean standard error was calculated for each experimental point.
For the preparation of doxorubicin-loaded micelles, doxorubicin.HCl (DOX.HCl, Sigma Chemical Co., St. Louis, Mo.) was desalted by stirring overnight in the presence of two molar equivalents of triethylamine (Sigma Chemical Co.) in DMSO (Sigma Chemical Co.). […] The amount of entrapped DOX was determined by measuring UV absorbance at 481 nm of the drug after dissolving micelles in DMSO. […]

[2] = test system: A2780/DOX^R tumor; design: species or system nude mice; conditions: mouse, in vivo, iv
Method: To directly explore the extent of drug extravasation from the blood vessels and accumulation of DOX in the tumor, the time-dependent fluorescence intensity of DOX in the tumor sight was measured using a non-invasive skin fold window chamber model, which allows real-time measurements. To investigate the in situ delivery of polymeric micelles to solid tumors, a non-invasive visualization method using a “dorsal skin-fold window chamber model” was used. M. R. Dreher et al., Tumor vascular permeability, accumulation, and penetration of macromolecular drug carriers, 98 J. Nat'l Cancer Inst. 335-344 (2006). To establish the window chamber model, S. Shan et al., A novel rodent mammary window of orthotic breast cancer for intravital microscopy, 65 Microvasc. Res. 109-117 (2003), a flap of skin measuring 1 cm in diameter was dissected away from opposing surfaces of the dorsal skin flap of an anesthetized mouse, leaving a facial plane with its associated vasculature. The flaps were held vertically away from the body with a titanium saddle, which was sutured to both sides of the flap. […] DOX was incorporated into the polymeric micellar core, and DOX fluorescence imaging was captured in the skin dorsal window. […] Observation was made using intravital fluorescence microscopy (Olympus BX51WI Microscope, Leeds Precision Instruments, Inc., Minnesota) over time.

[3] = test system: MCF-7/DOX^R cells; assay: MTT cytotoxicity against DOX-resistant MCF-7/DOX^R cells; conditions: 48 hrs incubation, pH 8.0-6.8
Method: DOX-resistant MCF-7 cells (MCF-7/DOX^R) were selected from MCF-7 cells (Korean Cell Line Bank (KCLB)) that were stepwise exposed at 0.001-10 mg/mL of free DOX. Here, cells were maintained in RPMI-1640 (Gibco, Uxbridge, UK) medium with 2 mM L-glutamine, 5% penicillin-streptomycin, and 10% fetal bovine serum in a humidified incubator 37° C. and 5% CO2 atmosphere.
For the cytotoxicity test of free DOX or drug-loaded polymeric micelles against sensitive MCF-7 or MCF-7/DOX^R cells, cells (5×10^4 cells/mL) growing as a monolayer, were seeded at 96-well dish in 200 mL of RPMI 1640 medium before 24 hrs. Free DOX or DOX loaded micelles in RPMI 1640 medium with pH 7.4 or 6.8 were prepared immediately before use as described above, added to medium-removed 96-well dish with different DOX concentration, and incubated for 48 hrs. Chemosensitivity was assessed using the tetrazolium salt MTT (Sigma Chemical Co.). Then, 100 mL of PBS pH 7.4 containing 20 mL of MTT (500 mg/L) solution was added to each well. The plates were incubated for an additional 4 hrs, and then 100 mL of DMSO was added to each well. The absorbance of each well was read on a microplate reader using a test wavelength of 570 nm and a reference wavelength 630 nm.

COc1cccc2c1C(=O)c1c(O)c3c(c(O)c1C2=O)C[C@@](O)(C(=O)CO)C[C@@H]3O[C@H]1C[C@H](N)[C@H](O)[C@H](C)O1 [free DOX, doxorubicin]
body weight change [1]: more weight loss | course of DOX fluorescence intensity in the tumor [2]: declined after 20 min and became dark at 60 min | time at which DOX fluorescence intensity in tumor started to appear [2]: ≤ 7 min | cytotoxicity against MCF-7/DOX^R cells [3]: little reduced
